Experimental data: patent US6960594B2, “Thiophene and furan 2,5-dicarboxamides useful in the treatment of cancer” (Shire BioChem Inc., priority 1998, dated 2005)
Where a name gives a salt, the structure may show the parent alone. Read-outs that look alike come from different tables or passages of the source. Blank lines part the entries; values can stand above or below the molecule they belong to.

Experiments:
[1] = system: Chick chorioallantoic membrane (CAM) capillary formation driven by VPF/VEGF165; experiment: Chick chorioallantoic membrane (CAM) mesh assay; format: in vivo, chicken; conditions: significant if >25%
Method: Fertilized white leghorn chicken eggs (SPAFAS Inc., Norwich, Conn.) were received at day 0 and incubated for 3 days at 37 C with constant humidity. On day 3, eggs were rinsed with 70% ethanol and opened into 100 mm^2 tissue culture coated Petri dishes under aseptic conditions. The embryos were then returned to a humidified 38 C incubator for 7-9 additional days.
Vitrogen (Collagen Biomaterials, Palo Alto, Calif.) at a final concentration of 0.73 mg/mL and Matrigel (Becton Dickinson, Bedford, Mass.) at a final concentration of 10 mg/mL was directly pipetted onto Nylon meshes with 250 μm^2 openings which were cut into 4 mm×4 mm squares and autoclaved. Polymerization of meshes were under aseptic conditions, on bacteriological Petri dishes. The polymerization conditions for each substrate were identical; after mixing with or without 250 μg of VPF/VEGF165 (Peprotech, Rocky Hill, N.J.) and/or compounds of interest, 40 μL were pipetted onto each mesh in a bacteriological Petri dish. The Petri dish was placed in a humidified 37 C incubator with 5% CO2 for 30 minutes to allow polymerization followed by an incubation at 4° C. for 2 hours.
In a tissue culture enclosure, meshes were placed onto the periphery of the CAM of a day 12-14 embryo, excluding areas containing major vessels. The embryos were then returned to the humidified 38° C. incubator with 3% CO2 for 24 to 48 additional hours.
Embryos were removed from the incubator and meshes were viewed under a dissecting microscope for gross evaluation. Injection of 400 μL FITC dextran, MW 2,000,000 (Sigma, St. Louis, Mo.) through glass microcapillary tubes by infusion into the umbilical vein was performed at a rate of 200 μl per minute. The FITC dextran was allowed to circulate for 5 minutes and 3.7% formaldehyde in PBS was applied directly on each mesh. The embryos were then incubated at 40° C. for 5 minutes and the meshes were dissected off the CAM and fixed in 3.7% formaldehyde for 10 minutes to overnight.
After fixation, meshes were mounted on slides with 90% glycerol in PBS and visualized on an inverted fluorescence microscope. A Nikon Diaphot with a Sony DXC-151A camera attached to the side port was used for capture of images and analysis was with the NIH Image 1.61 software program. For each mesh, 5 random staggered images (approximately 600 μm each) were captured. The areas of high intensity were highlighted and measured. Results are expressed as ability to suppress capillary formation after subtraction from negative control. Values were calculated as a inhibition, considering 100% the capillary density achieved by VPF in the presence of vitrogen alone minus the bakground levels in the absence of VPF. Negative values indicated angiogenic stimulation above the VPF positive control.

[2] = target: T1, αvβ5 (Homo sapiens, UniProt P06756+P18084); experiment: Cell adhesion assay, HT29 on vitronectin; format: cell-based
T1 construct: Cells HT29, K562, or K562 transfected with αvβ3; endogenous in cells; host or cells: HT29
Method: (§1) The wells of 96-well plates (Immunolon) were coated, by incubation overnight at 4° C., with 5 ug/mL vitronectin, 2 ug/mL osteopontin, or fibronectin or 10 mg/mL BSA in PBS. The protein solution was flicked out and the wells were blocked with 10 mg/mL BSA (0.1 mL) for 1-2 hours at 37° C. […] Cells were lifted with trypsin-EDTA and washed two times with Hank's balanced salt solution minus cations (Sigma) supplemented with 1 mM MgCl2 Cells (75,000 cells/well) were added to coated plates in triplicate and allowed to attach at 37° C. for 1 hour in the presence or absence of specific antibodies (5 ug/mL) or 10-fold dilutions of compounds of interest starting at 10 uM. Nonadherent cells were removed by gentle washing twice with PBS. The adherent cells were solubilized with 1% triton x-100 and detected using a fluorescence plate reader (DYNEX Technologies). The number of attached cells was calculated based upon standard curves for each cell line used in the experiment.

[3] = target: T2, αvβ3 (Homo sapiens, UniProt P05106+P06756); experiment: Cell adhesion assay, K562-tr on osteopontin; format: cell-based
T2 construct: expressed in transfected cells; host or cells: K562
Method: as §1

[4] = target: T3, α5β1 (Homo sapiens, UniProt P05556+P08648); experiment: Cell adhesion assay, K562 on fibronectin; format: cell-based; conditions: K562 cells, adhesion to fibronectin, 1 hour
T3 construct: Cells HT29, K562, or K562 transfected with αvβ3; endogenous in cells; host or cells: K562
Method: The wells of 96-well plates (Immunolon) were coated, by incubation overnight at 4° C., with 5 ug/mL vitronectin, 2 ug/mL osteopontin, or fibronectin or 10 mg/mL BSA in PBS. The protein solution was flicked out and the wells were blocked with 10 mg/mL BSA (0.1 mL) for 1-2 hours at 37° C. Cells HT29, K562, or K562 transfected with αvβ3 (Blystone et al., 1994) were loaded with a fluorescent marker, 5-chloromethylfluorescein diacetate (Molecular Probes, Eugene, Oreg.) for 1 hour at 37° C., then incubated in fresh medium without the fluorescent marker for 1 hour. Cells were lifted with trypsin-EDTA and washed two times with Hank's balanced salt solution minus cations (Sigma) supplemented with 1 mM MgCl2 Cells (75,000 cells/well) were added to coated plates in triplicate and allowed to attach at 37° C. for 1 hour in the presence or absence of specific antibodies (5 ug/mL) or 10-fold dilutions of compounds of interest starting at 10 uM. Nonadherent cells were removed by gentle washing twice with PBS. The adherent cells were solubilized with 1% triton x-100 and detected using a fluorescence plate reader (DYNEX Technologies). The number of attached cells was calculated based upon standard curves for each cell line used in the experiment. Non-specific cell attachment (attachment to wells coated with BSA) was always less than 5%.

[5] = target: T4, GP IIb-IIIa (αIIbβ3) (Homo sapiens, UniProt P05106+P08514); experiment: Fibrinogen binding to immobilized GP IIb-IIIa (αIIbβ3)
T4 construct: purchased Calbiochem
Method: (§2) The wells of plastic microtiter plates were coated overnight at 4° C. with purified active αIIbβ3 (Calbiochem) or placental αvβ3 at 0.5 ug/mL (100 uL/well) in a buffer containing 150 mM NaCl, 20 mM Tris, pH 7.4, 1 mM MgCl2, 0.2 mM MnCl2, and including 1 mM CaCl2 for αIIbβ3. Blocking of nonspecific sites was achieved by incubating the wells with 35 mg/mL bovine serum albumin (BSA) for at least 2 hours at 37° C. Biotinylated-fibrinogen (10 nM) was added in 0.2 mL binding buffer (100 mM NaCl, 50 mM Tris, pH 7.4, 1 mM MgCl2, 0.2 mM MnCl2 and 1 mg/mL BSA including 1 mM CaCl2 for αIIbβ3) to the wells in triplicate in the absence or presence of increasing concentrations of compounds of interest (0.001-100 uM) and further incubated for 2 hours at 37° C. Nonbound fibrinogen was removed by five washes with binding buffer. Avidin conjugated to alkaline phosphatase (Sigma), diluted in binding buffer, was added and incubated for two hours at 37° C. The plates were washed five times with binding buffer, and after addition of the substrate PNPP (Pierce), the enzyme activity was measured by the absorbance at 405 nm.

[6] = system: HMVEC; experiment: Cell proliferation and cytotoxicity MTT assay, HMVEC; format: cell-based; conditions: HMVEC, 72 hours culture
Method: (§3) The wells of microtiter plates were seeded with 2000 cells/well T24, 2500 cells/well HT29 or 5000 cells/well HMVEC (Cell Systems) in 100 uL, followed by an overnight culture for cell adhesion. The next day, the media is supplemented with 100 uL of 10-fold dilution of compound of interest starting at 10 uM. Following culture for 72 hours, 3-(4,5-dimethyl-2-thiazolyl)-2,5-diphenyltetrazolium bromide (MTT; Sigma) at 2 mg/mL was added to each well (50 uL/well) and further incubated for 4 hours at 37° C. The medium was flicked out and 200 uL of a 1:1 solution of ethanol:acetone followed by 25 uL of glycine buffer (0.1 M glycine, 0.1M NaCl, pH 10.5) is added and the color measured by the absorbance at 570 nm.

[7] = target: T5, placental αvβ3 (Homo sapiens, UniProt P05106+P06756); experiment: Fibrinogen binding to immobilized αvβ3
T5 construct: placental αvβ3 at 0.5 ug/mL; from tissue; host or cells: placenta
Method: as §2

[8] = system: HT29; experiment: Cell proliferation and cytotoxicity MTT assay, HT29; format: cell-based; conditions: Homo sapiens, HT-29, 72 hours culture
Method: as §3

[9] = system: Human non small-cell lung cancer cell line H460; experiment: Inhibition of metastasis in angiomouse/metamouse human lung cancer model of H460; format: in vivo, athymic BALB/c nude mice; conditions: Group B, 10 mg/kg SC 3 times/week
Method: Male and female athymic BALB/c nude mice between 4 and 5 weeks of age were used. The animals were bred and maintained in an HEPA-filtered environment with cages, food and bedding sterilized by autoclaving. The breeding pairs were obtained from the Charles River Laboratories (Wilmington, Mass.). The animal diets were obtained from Harlan Teklab (Madison, Wis.). Ampicillin (Sigma, St Louis, Mo.) 5.0% (v/v) was added to the autoclaved drinking water.
Compound VII was tested and AGM-1470 (chloroacetyl-(3R,4S,5S,6R)-5-methoxy-4-[(2R,3R)-2-methyl-3-(3-methyl-2-butenyl)oxiranyl]-1-oxaspiro[2.5]oct-6-yl ester carbamic acid) was used as a positive control. [drawing 51] The compounds were dissolved using PEG400 with heating and sonicatin. The solutions were then diluted with saline to obtain the desired concentrations (30%/70%) and stored at −20° C.
Human non small-cell lung cancer cell line H460 with expression of green fluorescent protein was obtained from the National Cancer Institute. The cells were transfected with vectors carrying the green fluorescent protein (GFP) gene. The cell line was propagated by subcutaneous implantation in nude mice.
Test animals were transplanted by surgical orthotopic implantation (SOI) using fragments harvested from subcutaneaous tumor stock animals. The animals were anesthetized with isoflurane and the surgical area was sterilized using iodine solution and alcohol. A left thoracotomy was made along the 4th intercostal space using a pair of scissors. Two pieces of H460 tumor tissue of one cubic millimiter each were sutured to the left lung using an 8-0 nylon surgical suture. The thorax was closed using a sterile 6-0 silk suture. A sterile 3-cc syringe with a 25-gauge needle was used to remove the air and inflate the lung. All surgical and animal manipulations and procedures were conducted under HEPA-filtered laminar flow hoods.
Extra numbers of mice were transplanted to compensate for postsurgical losses. The orthotopically transplanted animals used were selected to establish groups of similar mean body weight. Groups for each of the cohort conditions wre randomly chosen. The cohort was grouped as follows. A total of 10 mice were used for each dosage regimen. Administration of test compounds and vehicle by subcutaneous injection was begun three days after the orthotopic implantation.
Two animals for each treatment group were sacrificed at day-14 after orthotopic implantation of H460. The remaining animals for each group were sacrificed at day-28 after implantation. The sacrificed animals were evaluated for primary and secondary tumors. Gross examination for distant metastasis was conducted at necropsy. Tissue samples of the primary tumor and those from relevant organs such as the lung, the liver and the lymph nodes wre processed through standards procedures of hematoxylin and eosin staining for subsequent microscopic examination.
The mediastinal lymph nodes, the liver and the lung in each animal were collected. The sampled tissues were sectioned and stained, then microscopically examined. The fisher-exact test was performed to compare distant metastasis to these organs in the treated and the controls. […]

[10] = K562 transfected with αvβ3, adhesion to osteopontin, 1 hour, read-out: IC50 K562-tr Osteopontin (αvβ3)

T3 sequence (P08648 42-894 limits assumed): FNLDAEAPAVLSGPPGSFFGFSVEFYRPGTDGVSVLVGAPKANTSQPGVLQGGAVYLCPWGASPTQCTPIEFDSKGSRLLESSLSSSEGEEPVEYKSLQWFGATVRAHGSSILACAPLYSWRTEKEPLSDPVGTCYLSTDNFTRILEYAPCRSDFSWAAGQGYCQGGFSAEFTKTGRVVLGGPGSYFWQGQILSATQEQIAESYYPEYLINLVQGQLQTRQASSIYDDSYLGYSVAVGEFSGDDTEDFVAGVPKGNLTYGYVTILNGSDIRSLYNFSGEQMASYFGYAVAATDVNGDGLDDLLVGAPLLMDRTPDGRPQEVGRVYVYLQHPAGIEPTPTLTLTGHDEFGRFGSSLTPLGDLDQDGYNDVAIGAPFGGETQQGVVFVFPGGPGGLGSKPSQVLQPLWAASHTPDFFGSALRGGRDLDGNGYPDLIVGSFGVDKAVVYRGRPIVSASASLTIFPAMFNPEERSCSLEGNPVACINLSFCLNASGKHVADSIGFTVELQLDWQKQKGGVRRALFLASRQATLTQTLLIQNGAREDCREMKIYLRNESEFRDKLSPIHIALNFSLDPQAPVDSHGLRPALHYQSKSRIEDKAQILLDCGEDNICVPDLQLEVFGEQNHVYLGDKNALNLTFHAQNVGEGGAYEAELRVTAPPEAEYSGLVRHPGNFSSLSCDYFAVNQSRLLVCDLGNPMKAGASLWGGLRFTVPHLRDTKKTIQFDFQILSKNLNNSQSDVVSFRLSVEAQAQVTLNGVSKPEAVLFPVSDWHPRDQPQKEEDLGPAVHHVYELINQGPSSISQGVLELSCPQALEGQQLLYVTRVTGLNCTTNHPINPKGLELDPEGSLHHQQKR
T3 sequence (P08648 895-1049 partner limits assumed): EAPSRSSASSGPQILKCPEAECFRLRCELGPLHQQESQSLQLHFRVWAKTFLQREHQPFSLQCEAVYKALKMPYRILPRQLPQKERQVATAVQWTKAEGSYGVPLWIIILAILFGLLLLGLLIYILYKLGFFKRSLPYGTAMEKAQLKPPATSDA
T3 sequence (P05556 21-798): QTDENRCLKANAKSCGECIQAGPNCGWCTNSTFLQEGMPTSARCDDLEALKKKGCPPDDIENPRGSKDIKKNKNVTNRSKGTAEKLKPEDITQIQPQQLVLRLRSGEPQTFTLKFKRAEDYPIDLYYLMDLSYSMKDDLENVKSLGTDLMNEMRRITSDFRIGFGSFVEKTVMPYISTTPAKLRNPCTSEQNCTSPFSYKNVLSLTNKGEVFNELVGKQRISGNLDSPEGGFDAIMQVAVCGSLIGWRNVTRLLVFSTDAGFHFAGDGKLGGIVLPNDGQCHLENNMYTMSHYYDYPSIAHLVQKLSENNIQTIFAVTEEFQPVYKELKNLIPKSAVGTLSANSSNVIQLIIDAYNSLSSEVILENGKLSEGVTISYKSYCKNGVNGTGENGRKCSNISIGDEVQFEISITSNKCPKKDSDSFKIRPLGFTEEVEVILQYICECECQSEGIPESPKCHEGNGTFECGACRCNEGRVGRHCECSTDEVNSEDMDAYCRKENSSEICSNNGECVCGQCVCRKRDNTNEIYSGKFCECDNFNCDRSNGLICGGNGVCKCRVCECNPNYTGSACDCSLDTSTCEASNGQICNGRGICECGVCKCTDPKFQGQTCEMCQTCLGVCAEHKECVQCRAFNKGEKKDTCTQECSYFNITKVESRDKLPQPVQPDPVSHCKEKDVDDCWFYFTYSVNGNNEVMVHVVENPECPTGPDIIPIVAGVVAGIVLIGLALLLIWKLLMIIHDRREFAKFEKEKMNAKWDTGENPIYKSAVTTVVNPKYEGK
T2 sequence (P06756 31-889 limits assumed): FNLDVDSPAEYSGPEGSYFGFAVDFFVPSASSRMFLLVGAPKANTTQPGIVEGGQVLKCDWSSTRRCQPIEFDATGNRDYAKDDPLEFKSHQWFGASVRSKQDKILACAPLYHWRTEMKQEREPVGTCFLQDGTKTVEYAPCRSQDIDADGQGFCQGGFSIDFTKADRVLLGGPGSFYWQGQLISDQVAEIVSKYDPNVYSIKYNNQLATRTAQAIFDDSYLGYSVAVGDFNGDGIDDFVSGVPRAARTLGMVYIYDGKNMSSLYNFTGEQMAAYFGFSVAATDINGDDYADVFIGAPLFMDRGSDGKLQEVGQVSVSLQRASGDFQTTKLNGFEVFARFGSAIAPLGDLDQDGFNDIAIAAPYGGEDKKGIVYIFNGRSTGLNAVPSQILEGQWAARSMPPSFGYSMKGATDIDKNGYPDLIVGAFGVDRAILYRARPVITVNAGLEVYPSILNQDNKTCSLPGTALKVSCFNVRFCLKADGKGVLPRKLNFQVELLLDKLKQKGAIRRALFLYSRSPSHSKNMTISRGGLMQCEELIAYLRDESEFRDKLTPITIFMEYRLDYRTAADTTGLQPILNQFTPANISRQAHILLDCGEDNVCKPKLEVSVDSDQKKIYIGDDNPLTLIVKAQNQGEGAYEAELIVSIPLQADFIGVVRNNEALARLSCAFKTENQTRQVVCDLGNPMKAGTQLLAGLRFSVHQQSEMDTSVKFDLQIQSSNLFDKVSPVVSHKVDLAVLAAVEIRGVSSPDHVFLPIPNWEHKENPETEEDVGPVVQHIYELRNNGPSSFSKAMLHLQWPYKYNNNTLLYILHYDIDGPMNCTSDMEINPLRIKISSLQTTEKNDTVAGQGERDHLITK
T2 sequence (P06756 891-1048 partner limits assumed): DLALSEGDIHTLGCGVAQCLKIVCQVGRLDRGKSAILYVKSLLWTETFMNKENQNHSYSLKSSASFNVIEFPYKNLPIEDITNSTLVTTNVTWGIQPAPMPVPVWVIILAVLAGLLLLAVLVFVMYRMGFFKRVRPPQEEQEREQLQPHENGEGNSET
T2 sequence (P05106 27-788): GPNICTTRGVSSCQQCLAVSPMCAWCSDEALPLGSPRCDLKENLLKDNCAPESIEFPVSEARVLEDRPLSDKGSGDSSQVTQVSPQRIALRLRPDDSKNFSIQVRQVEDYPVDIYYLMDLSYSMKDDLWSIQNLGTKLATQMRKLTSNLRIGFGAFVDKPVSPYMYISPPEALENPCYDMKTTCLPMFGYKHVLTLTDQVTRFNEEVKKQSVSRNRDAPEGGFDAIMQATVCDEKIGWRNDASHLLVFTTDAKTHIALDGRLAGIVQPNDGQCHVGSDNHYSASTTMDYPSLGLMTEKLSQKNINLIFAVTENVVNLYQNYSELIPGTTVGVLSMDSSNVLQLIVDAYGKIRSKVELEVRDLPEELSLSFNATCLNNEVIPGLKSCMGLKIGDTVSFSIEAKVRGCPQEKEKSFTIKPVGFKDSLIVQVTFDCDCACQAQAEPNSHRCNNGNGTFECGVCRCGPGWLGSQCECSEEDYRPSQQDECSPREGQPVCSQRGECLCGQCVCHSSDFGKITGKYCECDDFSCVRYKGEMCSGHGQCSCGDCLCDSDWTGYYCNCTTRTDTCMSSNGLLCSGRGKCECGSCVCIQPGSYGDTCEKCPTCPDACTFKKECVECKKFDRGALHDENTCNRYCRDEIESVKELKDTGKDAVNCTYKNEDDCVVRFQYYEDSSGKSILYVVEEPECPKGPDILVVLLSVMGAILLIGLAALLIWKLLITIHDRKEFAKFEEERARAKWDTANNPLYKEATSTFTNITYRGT
T4 sequence (P08514 32-887 limits assumed): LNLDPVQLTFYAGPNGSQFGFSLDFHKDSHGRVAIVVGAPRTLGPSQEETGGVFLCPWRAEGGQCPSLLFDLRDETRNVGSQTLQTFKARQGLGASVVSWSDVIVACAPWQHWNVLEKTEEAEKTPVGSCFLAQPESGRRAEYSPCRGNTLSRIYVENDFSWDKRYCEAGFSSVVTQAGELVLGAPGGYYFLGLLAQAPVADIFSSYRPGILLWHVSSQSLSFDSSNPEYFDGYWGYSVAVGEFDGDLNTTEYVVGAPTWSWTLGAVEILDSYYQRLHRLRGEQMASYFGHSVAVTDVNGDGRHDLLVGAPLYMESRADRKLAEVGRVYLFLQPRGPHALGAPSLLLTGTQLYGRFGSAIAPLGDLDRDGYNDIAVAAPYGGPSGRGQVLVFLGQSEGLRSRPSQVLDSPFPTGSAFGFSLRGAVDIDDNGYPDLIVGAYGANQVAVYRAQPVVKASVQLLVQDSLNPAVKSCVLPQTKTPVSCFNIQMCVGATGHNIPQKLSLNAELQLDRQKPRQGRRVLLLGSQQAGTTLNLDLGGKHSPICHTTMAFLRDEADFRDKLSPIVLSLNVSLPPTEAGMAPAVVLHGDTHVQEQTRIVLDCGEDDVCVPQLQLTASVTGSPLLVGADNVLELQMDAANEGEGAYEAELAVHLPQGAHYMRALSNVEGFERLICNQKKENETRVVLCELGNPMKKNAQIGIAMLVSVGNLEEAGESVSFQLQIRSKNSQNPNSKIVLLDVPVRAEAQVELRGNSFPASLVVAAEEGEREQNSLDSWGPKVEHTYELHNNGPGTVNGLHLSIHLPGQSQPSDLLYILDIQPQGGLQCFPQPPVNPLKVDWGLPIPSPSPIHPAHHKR
T4 sequence (P08514 891-1039 partner limits assumed): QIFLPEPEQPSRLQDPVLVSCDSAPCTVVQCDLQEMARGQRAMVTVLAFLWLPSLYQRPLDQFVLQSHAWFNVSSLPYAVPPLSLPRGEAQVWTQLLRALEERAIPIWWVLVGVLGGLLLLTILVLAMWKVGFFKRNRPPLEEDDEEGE
T4 sequence (P05106 27-788): as the sequence (P05106 27-788) above
T5 sequence (P06756 31-889 limits assumed): as the sequence (P06756 31-889 limits assumed) above
T5 sequence (P06756 891-1048 partner limits assumed): as the sequence (P06756 891-1048 partner limits assumed) above
T5 sequence (P05106 27-788): as the sequence (P05106 27-788) above

Structure (SMILES): Cl.N=C(N)NCCNC(=O)c1ccc(C(=O)NC[C@H](NS(=O)(=O)c2ccccc2)C(=O)O)o1 [Compound XXI]
% of inhibition at 33 μg/mesh in the presence of VEGF [1]: 32%

Structure (SMILES): NCCNC(=O)c1ccc(C(=O)NC[C@H](NS(=O)(=O)c2ccccc2)C(=O)O)s1 [Compound X, (2S)2-Benzenesulfonylamino-3-[5-(2-amino-ethylcarbamoyl)-thiophen-2-carbonyl]-amino propionic acid trifluoroacetic acid salt]
IC50 ([2]; HT29 cells, adhesion to vitronectin, 1 hour, read-out: IC50 HT29 Vitronectin (αvβ5)): > 10 µM
IC50 [3, 10]: > 10 µM
IC50 [4]: > 10 µM

IC50 ([5]; biotinylated-fibrinogen (10 nM) binding to immobilized αIIbβ3, read-out: IC50 αIIbβ3): 5.9 µM
IC50 ([7]; biotinylated-fibrinogen (10 nM) binding to immobilized αvβ3, read-out: IC50 αvβ3): 3.2 µM
Structure (SMILES): N=C(N)NCCCNC(=O)c1ccc(C(=O)NC(CC(=O)O)c2ccccc2)s1 (stereo not shown) [Compound VIII, 3-{[5-(3-guanidino-propylcarbamoyl)-thiophene-2-carbonyl]-amino}-3-phenyl-propionic acid]
IC50 [6]: > 10 µM
% of inhibition at 33 μg/mesh in the presence of VEGF [1]: 36%
IC50 [8]: > 10 µM

IC50 [2]: 5.4 µM
IC50 [5]: 0.931 µM
IC50 [3]: 2.3 µM
IC50 [7]: 0.045 µM
IC50 [4]: > 10 µM
Structure (SMILES): Cl.N=C(N)NCCNC(=O)c1ccc(C(=O)NC[C@H](NS(=O)(=O)c2ccccc2)C(=O)O)o1 [Compound XXI, hydrochloride]
IC50 [6]: 8.9 µM
IC50 [8]: > 10 µM

Structure (SMILES): N=C(N)NNC(=O)c1ccc(C(=O)NC[C@H](NS(=O)(=O)c2ccccc2)C(=O)O)s1.O=C(O)C(F)(F)F [Compound XIX, 2S-Benzenesulfonylamino-3-[(5-guanidino-aminocarbonyl-thiophene-2-carbonyl)-amino]-3-propionic acid trifluoroacetate]
IC50 [3, 10]: 1.3 µM
IC50 [4]: > 10 µM
% of inhibition at 33 μg/mesh in the presence of VEGF [1]: 8%

Structure (SMILES): NNC(=O)c1ccc(C(=O)NC[C@H](NS(=O)(=O)c2ccccc2)C(=O)O)s1.O=C(O)C(F)(F)F [Compound XVIII, 2S-Benzenesulfonylamino-3-[(5-hydrazinocarbonyl-thiophene-2-carbonyl)-amino]-3-propionic acid trifluoroacetate]
% of inhibition at 33 μg/mesh in the presence of VEGF [1]: 20%

Structure (SMILES): CO[C@@H]1[C@H](OC(=O)NC(=O)CCl)CC[C@]2(CO2)[C@H]1[C@@]1(C)O[C@@H]1CC=C(C)C [AGM-1470, chloroacetyl-(3R,4S,5S,6R)-5-methoxy-4-[(2R,3R)-2-methyl-3-(3-methyl-2-butenyl)oxiranyl]-1-oxaspiro[2.5]oct-6-yl ester carbamic acid, reference compound]
Incidence of lung metastasis [9]: 3/10
Incidence of lymph node metastasis [9]: 1/10
